Here are results for 85 compounds from the OPERA property sets (Mansouri et al. 2018).

Structures are written as SMILES. Converted amounts (≈) assume the structure as drawn. Where a SMILES comes first, the peptide text is derived from it. The star is where a group is joined. NHtBu = CC(C)(C)N*

Settings in the first series: not given
A word on the logP: it is the decadic logarithm of the partition coefficient of the neutral form, usually between octanol and water. `CC(C)CC(=O)OCc1ccccc1` yielded a logP of 3.26. `Nc1nc(NC(=O)C(F)(F)C(F)(F)C(F)(F)F)n[nH]1` yielded a lipophilicity (logP) of 1.54.

With `CCCCCOC(=O)c1ccccc1C(=O)OCCCCC`, the logP is 5.62. On the same count and under the same terms, for `CC(C)(C)C(O)C(Oc1ccc(Cl)cc1)n1cncn1` (stereo unspecified) the value was 2.9. Regarding `CC(=O)Nc1ncc2ncn(COCCOC(C)=O)c2n1`, the logP was -1.05.

In turn, `Cc1c(Cl)c(Cl)c(C(C)C)c(Cl)c1Cl` gave a logP of 6.8. `CC(=O)N[C@@H](Cc1ccccc1)C(=O)O` registered a logP of 0.93.

As for `CCCS(=O)c1ccc2[nH]c(NC(=O)OC)nc2c1` (stereo unspecified), the logP amounted to 1.27.

For the compound `CC(=O)OC(c1ccc(Cl)c(Cl)c1)C(Cl)(Cl)Cl` (stereo unspecified), the logP is 4.92. `COC(=O)c1ccccc1CS(N)(=O)=O` had a logP of 0.37. The compound `CCN(O)CC` registered a logP of -0.17. `C=CC(=O)NCCCN1CCOCC1` displayed a logP of -0.53. The same measure, in the same setting: the figure for `CCCCCOC(=O)c1cc(=O)[nH]c(=O)[nH]1` is 1.62. In turn, `CCC(C)O` (stereo unspecified) had a log10 OH rate constant (cm³/molecule/s) of -11. `CC(=O)n1ncc2c(O)ncnc21` came in with a logP of -0.35. `CCN=c1nc(Cl)[nH]c(=NC(C)CC)[nH]1` (stereo unspecified) came in with a logP of 2.61. Still for that read-out and setting: for `COc1ccc(-c2cc(C#N)c(Cl)nc2C)cc1OC` the value was 2.86; for `CCCCCCCCCCCCCCO`, 6.03; for `ClC1=C(Cl)C2(Cl)C3CC=CC3C1(Cl)C2(Cl)Cl` (stereo unspecified), 5.57. Still for that read-out and setting: the figure for `COC(=O)C(C)Oc1ccc(Oc2ccc(Cl)cc2Cl)cc1` (stereo unspecified) is 4.62; for `O=C(c1ccc(Cl)cc1)c1cc(F)ccc1O` it is 4.05; for `Brc1cc(Br)c(Oc2c(Br)c(Br)c(Br)c(Br)c2Br)cc1Br` it is 8.71.

In turn, `CC(C)c1cccc(-c2ccccc2)c1` showed a logP of 5.33.

As to `CN1CC=C(c2ccncc2)CC1`, the logP stood at 1.25. Consider `C/C=C(/C)C(=O)O[C@H]1CCN2CC=C(COC(=O)[C@](O)([C@H](C)OC)C(C)(C)O)[C@H]12`, for which the logP was determined as 1.28. The compound `CC(C)c1ccccc1-c1ccccc1` returned a logP of 5.2.

Consider `c1ccc2c(c1)cc1ccc3cccc4ccc2c1c34`, for which the logP was 6.13. The same measure, in the same setting: the figure for `CC(=O)Nc1ccc2nc(S(N)(=O)=O)sc2c1` is 0.86; for `CC1=NS(=O)(=O)c2cccnc2N1` it is -0.25; for `COc1ccc(C(=O)CCCC(=O)O)cc1Cl` it is 2.17. In turn, `COc1ccc(N=c2snc3sc(S(N)(=O)=O)nn23)cc1` came in with a logP of 2.93. `Nc1cccc2c(N)cccc12` had a logP of 0.89. With `OCCCNc1ccccc1`, the logP stood at 0.57. `ClCC1(CCl)C2C(Cl)C(Cl)(Cl)C1(C(Cl)Cl)CC2(Cl)Cl` (stereo unspecified) had a logP of 6.26. With `CC(CCC(=O)O)C1CCC2C3C(O)C(O)C4CC(O)CCC4(C)C3CCC12C` (stereo unspecified), the logP was 2.8. Regarding `CC(C)CCOC(=O)c1cc(=O)[nH]c(=O)[nH]1`, the logP came out at 1.48.

With `Clc1cccc2c1Oc1c(Cl)c(Cl)c(Cl)c(Cl)c1O2`, the logP worked out at 6.5. On the same count and under the same terms, the figure for `Clc1ccc(Cl)c(NC2=NCCN2)c1Cl` is 2.46. Still for that read-out and setting: for `[O-][N+](=Cc1ccccc1)c1ccccc1` the value was 1.88; for `CC1(CCl)C2CC(Cl)(Cl)C1(C(Cl)Cl)CC2(Cl)Cl` (stereo unspecified), 5.49; for `CCNc1nc(NCC)nc(SC)n1`, 2.8. Same read-out and setting: the figure for `CC(C(=O)O)c1ccc2oc(-c3ccc(Cl)cc3)nc2c1` (stereo unspecified) is 3.23. The term solubility denotes the concentration that dissolves in the medium under given conditions. A high value points to a readily soluble substance. In turn, `O=C(O)c1cc[n+]([O-])cc1` yielded a solubility of 79100 µM (≈ 11000 µg/mL). For `COc1ccc2c(c1)OCC1(O)c3cc4c(cc3OC21)OCO4` (stereo unspecified), the logP turned out to be 2.58. `Nc1cc(Cl)c(S(N)(=O)=O)cc1S(N)(=O)=O` displayed a logP of -0.41. As for `CCCCCCCOC(=O)c1ccc(N)cc1`, the logP came to 4.5. `CC(=O)OCCC(C)C` displayed a logP of 2.25. Still for that read-out and setting: the figure for `N=C(N)NN=Cc1cccc([N+](=O)[O-])c1` is 0.01. Take `c1ccc(N=Nc2ccccc2)cc1`: the solubility was 35.1 µM (≈ 6.4 µg/mL). Regarding `CN(C)CCc1ccccn1`, the logP was found to be 1.12.

As for `CC(C)/N=c1/cc2n(-c3ccc(Cl)cc3)c3ccccc3nc-2cc1Nc1ccc(Cl)cc1`, the logP worked out at 7.66. Same read-out and setting: the figure for `CCN1CCC[C@H]1CNC(=O)c1c(OC)ccc(Br)c1OC` is 2.1. `Clc1ccc(Nc2cc3nc4ccccc4n(-c4ccc(Cl)cc4)c-3cc2=NCC2CCNCC2)cc1` came in with a logP of 6.44. In the case of `CC(=O)Oc1ccc(OCCN(C)C)cc1C`, the log partition coefficient (logP) was 1.64. With `COCc1ccc(COC)cc1`, the logP was 1.28. The same measure, in the same setting: for `C=CCOc1ccccc1OCC(CNC(C)C)OC(=O)CCCC` (stereo unspecified) the value was 4.

Compound `NS(=O)(=O)c1nn2c(=Nc3ccc(Cl)cc3)snc2s1` displayed a logP of 3.63. `CC(=O)NC(C)C(=O)NC(CCC(=O)O)C(=O)NC(C)(C)C` (stereo not drawn) (Ac-Ala-Glu-NHtBu; configuration not given here) yielded a logP of -0.67.

The series is the same for the next values; noted with them: 20 °C.
Regarding `Clc1cccc2c1Oc1c(Cl)c(Cl)c(Cl)c(Cl)c1O2`, the solubility came out at 0.000337 µM (≈ 0.00012 µg/mL).

Compound `Clc1ccc(-c2ccc(Cl)cc2)cc1` showed a solubility of 0.278 µM (≈ 0.062 µg/mL).

The series is the same for the next values; noted with them: 22.0 °C.
The compound `CC(C)CO[N+](=O)[O-]` came in with a log10 OH rate constant (cm³/molecule/s) of -12.

The same series, now with this note: 25 °C.
Turning to `CCCc1ccccc1`, the solubility stood at 434 µM (≈ 52.2 µg/mL). Compound `Brc1cc(Br)c(Br)cc1Br` had a solubility of 0.102 µM (≈ 0.04 µg/mL). `C[Se]C`: the solubility was found to be 224000 µM (≈ 24400 µg/mL). The same measure, in the same setting: the figure for `CC(C)CO[N+](=O)[O-]` is 11200 µM (≈ 1330 µg/mL); for `Clc1cc(Cl)c(-c2ccccc2Cl)cc1Cl` it is 0.0562 µM (≈ 0.0164 µg/mL).

As for `CC(C)c1ccccc1-c1ccccc1`, the solubility was 3.06 µM (≈ 0.6 µg/mL). On the same count and under the same terms, the figure for `ClC1=C(Cl)C2(Cl)C3CCC4C(CCC3C1(Cl)C2(Cl)Cl)C1(Cl)C(Cl)=C(Cl)C4(Cl)C1(Cl)Cl` (stereo unspecified) is 6.73e-08 µM (≈ 4.4e-08 µg/mL); for `c1ccc2c(c1)cc1ccc3cccc4ccc2c1c34` it is 0.00642 µM (≈ 0.00162 µg/mL); for `C=Cc1cccc(C)c1` it is 753 µM (≈ 89 µg/mL). Regarding `Cc1cccc(Oc2ccc([N+](=O)[O-])cc2)c1`, the solubility is 21.8 µM (≈ 5 µg/mL). The compound `CC(=O)OCC(=O)[C@H]1CC[C@H]2[C@@H]3CCC4=CC(=O)CC[C@]4(C)[C@H]3CC[C@]12C` displayed a solubility of 23.4 µM (≈ 8.73 µg/mL). In the case of `CCOC(=O)N(C)N=O`, the solubility was found to be 280000 µM (≈ 37000 µg/mL).

`C=C(C)C(=C)C` yielded a solubility of 3970 µM (≈ 327 µg/mL). With `O=CC=Cc1ccccc1`, the solubility turned out to be 10700 µM (≈ 1420 µg/mL). As for `CCCCCCCCCCCCN`, the solubility amounted to 421 µM (≈ 78 µg/mL). The compound `Nc1ccccc1Cl` registered a solubility of 64000 µM (≈ 8160 µg/mL). The compound `C=C(C)C(=O)OCC(C)C` registered a solubility of 9140 µM (≈ 1300 µg/mL).

Staying with this series, now noted: 25.0 °C.
Compound `Cc1cc2ccccc2cc1C` displayed a log10 OH rate constant (cm³/molecule/s) of -10.2. Same read-out and setting: for `C=C(C)C(CC=O)CCC(C)=O` (stereo unspecified) the value was -9.96. The same measure, in the same setting: the figure for `c1cc2ccc3cccc4ccc(c1)c2c34` is -10.3; for `C[Se]C` it is -10.2. Still for that read-out and setting: for `CCCCOCOCCCC` the value was -10.5; for `CCC(C)Cl` (stereo unspecified), -11.6; for `FC(F)=C(F)OC(F)(F)F`, -11.4. `Clc1ccc(-c2ccc(Cl)cc2)cc1` yielded a log10 OH rate constant (cm³/molecule/s) of -11.7. As for `FC(F)(Cl)C(Cl)Cl`, the log10 OH rate constant (cm³/molecule/s) is -13.3. As for `CCOC(F)(F)C(F)F`, the log10 OH rate constant (cm³/molecule/s) was -12.6. Same read-out and setting: for `FC(F)C(F)(F)C(F)(F)C(F)F` the value was -14.3.

The same series, now with this note: 27.0 °C.
Regarding `CC1=CC(=O)C=CC1=O`, the log10 OH rate constant (cm³/molecule/s) is -10.6.

The same series, now with this note: 30 °C.
Compound `Cc1ccc([N+](=O)[O-])cc1` came in with a solubility of 3220 µM (≈ 442 µg/mL).
